Results published in patent US20250099420A1, “SMALL MOLECULE MODULATORS OF GPR139 COMPLEX” (University of Florida Research Foundation, Incorporated, priority 2022, published 2025).
Read-outs that look alike come from different tables or passages of the source.

Legend:
parental HEK cells = assay: HEK parental Agonist Counterscreen Assay (non-transfected cells); type: cell-based; conditions: for Averaged Max % Response (±St. Dev.): activity relative to known control
Description: The high control for the agonist counterscreen was Forskolin not acetylcholine.

GPR139 = biological target: T1, GPR139 (Homo sapiens, UniProt Q6DWJ6); assay: GPR139 Agonist titration / agonist counterscreen assay (calcium detection, HEK-GPR139 cells); type: cell-based; design: expressed in transfected cells; host or cells: HEK Aequorin cells, Maxcyte transient transfection; conditions: GPR139 Agonist Activity; for Averaged Max % Response (±St. Dev.): activity relative to known control; for EC50: read-out: EC50
T1 sequence (Q6DWJ6 1-353): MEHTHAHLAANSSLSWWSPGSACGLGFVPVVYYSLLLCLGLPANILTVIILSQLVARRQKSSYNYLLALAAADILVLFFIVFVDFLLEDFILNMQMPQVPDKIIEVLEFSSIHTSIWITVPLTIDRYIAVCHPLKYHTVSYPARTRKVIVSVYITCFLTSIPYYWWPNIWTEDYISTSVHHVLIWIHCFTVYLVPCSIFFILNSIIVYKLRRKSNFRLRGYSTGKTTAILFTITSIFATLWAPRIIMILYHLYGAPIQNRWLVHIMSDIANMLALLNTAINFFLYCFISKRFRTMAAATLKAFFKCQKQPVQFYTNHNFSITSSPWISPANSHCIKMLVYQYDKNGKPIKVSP
Method: GPR activity was assessed using a calcium detection assay. […] Negative control samples were treated with DMSO. […] Intracellular calcium was measured using Calcium 5.

[1] = Homo sapiens, HEK293, HEK Agonist Activity section of Table 4 (parental HEK counterscreen)
[2] = values printed in E-notation without unit
[3] = HEK Agonist Activity section of Table 4 (parental HEK counterscreen)
[4] = Homo sapiens, HEK293, HEK Agonist Activity, parental non-transfected HEK cells

Structure (SMILES)	Lipophilic Efficiency (logD) (parental HEK cells; HEK Agonist Activity section)	Lipophilic Efficiency (logP) (parental HEK cells; HEK Agonist Activity section)	Efficiency Ligand (GPR139)	Hill Slope (GPR139)	Lipophilic Efficiency (logD) (GPR139)	Lipophilic Efficiency (logP) (GPR139)	Averaged Max % Response (±St. Dev.) (GPR139) [%]	Lipophilic Efficiency (logD) (GPR139; based on logD)	Lipophilic Efficiency (logP) (GPR139; based on logP)	Hill Slope (GPR139; fitted dose-response curve)	Efficiency Ligand (GPR139; ligand efficiency)	EC50 (GPR139; [2]) [nM]	Lipophilic Efficiency (logD) (parental HEK cells; HEK Agonist Activity)	Lipophilic Efficiency (logP) (parental HEK cells; HEK Agonist Activity)	EC50 (GPR139; HEK-GPR139 cells) [nM]	Averaged Max % Response (±St. Dev.) (parental HEK cells; HEK Agonist Activity section) [%]	EC50 (parental HEK cells; [1]) [nM]	EC50 (parental HEK cells; [3]) [nM]	Averaged Max % Response (±St. Dev.) (parental HEK cells; HEK Agonist Activity) [%]	EC50 (parental HEK cells; [4]) [nM]
C=C(CCC)c1ccc(CCC2=NNC(c3ccccc3)N2C)cc1 (stereo not drawn) [SR-01000299610]	2.82	2.82	0.33	0.79	3.88	3.88	71.34 ± 19.37	–	–	–	–	–	–	–	–	−12.89 ± 6.99	> 14100	–	–	–
CCc1cc(C2=C/C(=C/c3c(OC)ccc4ccccc34)C(=O)O2)cc(OC)c1OC [SR-01000551463]	0.71	0.71	–	–	–	–	110.88 ± 6.83	3.11	3.11	0.64	0.33	49.6	–	–	–	18.60 ± 9.91	> 12200	–	–	–
CC(NC(=O)Cn1ncc2c(Cl)cccc21)c1ccc2c(c1)OCCO2 (stereo not drawn) [SR-01000155068]	–	–	–	–	–	–	127.51 ± 13.72	5.00	5.00	0.58	0.41	26.7	2.28	2.28	–	–	–	–	−2.13 ± 1.88	> 14100
Cc1cc(C)c2c(cnn2CC(=O)N2CCc3ccccc3C2)c1 [SR-01000154995]	1.52	1.52	0.36	1.08	2.91	2.91	88.51 ± 8.87	–	–	–	–	–	–	–	572	41.69 ± 44.54	–	> 14100	–	–
CC1=CN=C(CCc2ccc(F)c3ccccc23)C1 [SR-01000525232]	–	–	–	–	–	–	96.70 ± 23.19	4.05	4.05	0.19	0.57	–	1.09	1.09	–	–	–	–	−17.88 ± 3.50	> 17400
O=C(CN1C(=O)NC2(CCc3ccccc3C2)C1=O)Nc1ccccc1Oc1ccccc1 (stereo not drawn) [SR-01000039980]	–	–	–	–	–	–	134.67 ± 13.58	4.01	4.01	0.55	0.34	10.4	0.84	0.84	–	–	–	–	39.53 ± 8.33	> 15300

Continued, in another order:

Lipophilic Efficiency (logD) (parental HEK cells; HEK Agonist Activity section)	Lipophilic Efficiency (logP) (parental HEK cells; HEK Agonist Activity section)	Efficiency Ligand (GPR139)	Hill Slope (GPR139)	Lipophilic Efficiency (logD) (GPR139)	Lipophilic Efficiency (logP) (GPR139)	Averaged Max % Response (±St. Dev.) (GPR139) [%]	Lipophilic Efficiency (logD) (GPR139; based on logD)	Lipophilic Efficiency (logP) (GPR139; based on logP)	Hill Slope (GPR139; fitted dose-response curve)	Efficiency Ligand (GPR139; ligand efficiency)	EC50 (GPR139; [2]) [nM]	Lipophilic Efficiency (logD) (parental HEK cells; HEK Agonist Activity)	Lipophilic Efficiency (logP) (parental HEK cells; HEK Agonist Activity)	EC50 (GPR139; HEK-GPR139 cells) [nM]	Structure (SMILES)	Averaged Max % Response (±St. Dev.) (parental HEK cells; HEK Agonist Activity section) [%]	EC50 (parental HEK cells; [1]) [nM]	EC50 (parental HEK cells; [3]) [nM]	Averaged Max % Response (±St. Dev.) (parental HEK cells; HEK Agonist Activity) [%]	EC50 (parental HEK cells; [4]) [nM]
3.17	3.17	–	–	–	–	94.25 ± 9.34	5.17	5.17	0.65	0.37	–	–	–	–	C=C1CC(C)(c2ccc(OC)cc2)C(=C)C1CC(=O)CC1CCCCC1 (stereo not drawn) [SR-01000918719]	19.77 ± 4.52	> 14100	–	–	–
2.61	2.60	–	–	–	–	114.46 ± 17.21	4.50	4.50	0.82	0.41	179	–	–	–	COc1ccc(CCC(=O)Nc2ccc(/C(N)=N/O)cc2)cc1 [SR-01000103876]	1.17 ± 3.96	–	> 14100	–	–
1.25	1.25	–	–	–	–	98.09 ± 3.30	3.69	3.69	0.31	0.41	51	–	–	–	COc1ccccc1-c1nnc(NC(=O)Cc2ccc(C)cc2C)o1 [SR-01000915644]	−2.94 ± 0.56	> 14100	–	–	–
